In patent US5013724A, “Process for the sulfation of glycosaminoglycans, the sulfated glycosaminoglycans and their biological applications” (Sanofi Societe Anonyme, priority 1986, dated 1991):

Key:
factor IIa (thrombin) [1] = assay: inhibitory activity towards factor IIa (thrombin) in the presence of AT-III; assay type: biochemical; details: Experiment 1
Method: (§1) (b) inhibitory activity towards the activated factor II (factor IIa) or thrombin.
(§2) The results are expressed in μg of product per ml.
(§3) In this model system, the inhibition of factor IIa is determined by measuring the IC 50 of the test substances in the presence of AT-III and HC II.

factor IIa (thrombin) [2] = assay: inhibitory activity towards factor IIa (thrombin) in the presence of HC II; assay type: biochemical; details: Experiment 1
Method: as §1, §2, §3

blood coagulation = assay: coagulation time by the APTT method; assay type: biochemical; details: Experiment 1
Method: (c) measurement of the coagulation time by the APTT method (as described in Caen, J., Larrieu, M. J., and Samama, in Hemostase, paris, Expansion Scientifique Francaise, 1968, pp 133-135).
In the present instance, the concentration of the product to be tested necessary for a doubling of the coagulation time is determined.
The result is expressed in μg of substance tested per ml.

thrombus formation = assay: anti-thrombotic activity in vivo in the rabbit, Wessler model (human thromboplastin as thrombogenic agent); details: dose of 100 μg/kg
Method: (d) anti-thrombotic activity in vivo in the rabbit, according to the model of Wessler (such as that described by Wessler, S., Reimer, S. M. and Sheps, M. C., in J. Appl. Physiol. 14 (6), 943-946, 1959).
The test substance is injected into the carotid artery, at doses varying from 10 to 500 μg/kg, 3 mn before the administration of the thrombogenic agent (human thromboplastin).
The result is expressed as percentage of inhibition of thrombus formation.

plasma = assay: additional experiments in plasma on cofactor dependence

In the case of Dermatan sulfate, the “Anti-IIa activity, AT-III, IC 50” value (factor IIa (thrombin) [1]) is reported as 100 µg/mL, the “Anti-IIa activity, HC II, IC 50” value (factor IIa (thrombin) [2]) is reported as 5.8 µg/mL and the “activity in the APTT model (in words)” value (blood coagulation) is reported as “sursulfation increases the activity”. For the same substance, the “Concentration necessary to double the coagulation time” value (blood coagulation; APTT method) was 50 µg/mL, the “prevention of thrombus formation” value (thrombus formation) was roughly 40% and the “cofactor dependence of the action in plasma” value (plasma) was “totally dependent on HC 11”.
